Patent US20250230193A1, “CYCLIC COMPOUND HAVING SELECTIVE KRAS INHIBITORY EFFECT ON HRAS AND NRAS” (CHUGAI SEIYAKU KABUSHIKI KAISHA, priority 2022, published 2025)

Experiments:
[1] = molecular target: GDP-bound NRAS wild-type protein (Homo sapiens, UniProt P01111); experiment: Binding to NRAS by surface plasmon resonance (SPR), Single Cycle Kinetics; settings: SPR, GDP-bound NRAS wild-type vs GDP-bound KRAS wild-type
[2] = molecular target: GDP-bound HRAS wild-type protein (Homo sapiens, UniProt P01112); experiment: Binding to HRAS by surface plasmon resonance (SPR), Single Cycle Kinetics; settings: SPR, GDP-bound HRAS wild-type vs GDP-bound KRAS wild-type
GDP-bound HRAS wild-type protein, sequence (P01112 whole entry): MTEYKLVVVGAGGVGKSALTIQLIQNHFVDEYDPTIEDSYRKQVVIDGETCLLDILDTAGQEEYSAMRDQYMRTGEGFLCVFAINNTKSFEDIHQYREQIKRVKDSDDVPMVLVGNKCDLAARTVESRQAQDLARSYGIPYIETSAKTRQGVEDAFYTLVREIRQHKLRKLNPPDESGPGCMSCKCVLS

GDP-bound NRAS wild-type protein, sequence (P01111 whole entry): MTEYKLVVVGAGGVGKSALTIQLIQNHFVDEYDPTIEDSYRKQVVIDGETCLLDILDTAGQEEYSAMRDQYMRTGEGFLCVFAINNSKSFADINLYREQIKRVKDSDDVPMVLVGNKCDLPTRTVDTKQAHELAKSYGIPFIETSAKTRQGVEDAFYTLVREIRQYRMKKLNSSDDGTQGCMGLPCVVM

SMILES	NRAS/KRAS (ratio of KD value with respect to NRAS to KD value with respect to KRAS) [1]	HRAS/KRAS (ratio of KD value with respect to HRAS to KD value with respect to KRAS) [2]
CCC[C@H]1C(=O)N[C@@H]([C@@H](C)CC)C(=O)N(C2CC2)CC(=O)N(C)[C@H]2C/C=C\CCN(C2=O)[C@@H](Cc2ccc(C(F)(F)F)cc2)C(=O)N(C)CC(=O)N[C@@H](CCc2cc(F)c(C(F)(F)F)c(F)c2)C(=O)N2C[C@H](OCC)C[C@H]2C(=O)NC2(CC(C)(C)C2)C(=O)N(C)[C@@H](C2CCCC2)C(=O)N(C)[C@H](C(=O)N(C)C)CC(=O)N1C [PP2101]	A (a compound having 10 or more and less than 20 is denoted as A)	B (a compound having 3 or more and less than 10 is denoted as B)
C=CCN1CC(=O)N(C)[C@H]2C/C=C\CCN(C2=O)[C@@H](Cc2ccc(C(F)(F)F)cc2)C(=O)N(C)CC(=O)N[C@@H](CCc2cc(F)c(C(F)(F)F)c(F)c2)C(=O)N2C[C@H](OCC)C[C@H]2C(=O)NC2(CC(C)(C)C2)C(=O)N(C)[C@@H](C2CCCC2)C(=O)N(C)[C@H](C(=O)N(C)C)CC(=O)N(C)[C@@H](CCC)C(=O)N[C@@H]([C@@H](C)CC)C1=O [PP2102]	A (a compound having 10 or more and less than 20 is denoted as A)	A (a compound having 10 or more and less than 20 is denoted as A)
C#CCN1CC(=O)N(C)[C@H]2C/C=C\CCN(C2=O)[C@@H](Cc2ccc(C(F)(F)F)cc2)C(=O)N(C)CC(=O)N[C@@H](CCc2cc(F)c(C(F)(F)F)c(F)c2)C(=O)N2C[C@H](OCC)C[C@H]2C(=O)NC2(CC(C)(C)C2)C(=O)N(C)[C@@H](C2CCCC2)C(=O)N(C)[C@H](C(=O)N(C)C)CC(=O)N(C)[C@@H](CCC)C(=O)N[C@@H]([C@@H](C)CC)C1=O [PP2103]	A (a compound having 10 or more and less than 20 is denoted as A)	A (a compound having 10 or more and less than 20 is denoted as A)
CCC[C@H]1C(=O)N[C@@H]([C@@H](C)CC)C(=O)N(C2CC2)CC(=O)N(C)[C@H]2C/C=C\CCN(C2=O)[C@@H](Cc2ccc(C(F)(F)F)cc2)C(=O)N(C)CC(=O)N[C@@H](CCc2ccc(C(F)(F)F)c(OC)c2)C(=O)N2C[C@H](OCC)C[C@H]2C(=O)NC2(CC(C)(C)C2)C(=O)N(C)[C@@H](C2CCCC2)C(=O)N(C)[C@H](C(=O)N(C)C)CC(=O)N1C [PP2105]	A (a compound having 10 or more and less than 20 is denoted as A)	A (a compound having 10 or more and less than 20 is denoted as A)
C=CCN1CC(=O)N(C)[C@H]2C/C=C\CCN(C2=O)[C@@H](Cc2ccc(C(F)(F)F)cc2)C(=O)N(C)CC(=O)N[C@@H](CCc2ccc(C(F)(F)F)c(OC)c2)C(=O)N2C[C@H](OCC)C[C@H]2C(=O)NC2(CC(C)(C)C2)C(=O)N(C)[C@@H](C2CCCC2)C(=O)N(C)[C@H](C(=O)N(C)C)CC(=O)N(C)[C@@H](CCC)C(=O)N[C@@H]([C@@H](C)CC)C1=O [PP2106]	A (a compound having 10 or more and less than 20 is denoted as A)	A (a compound having 10 or more and less than 20 is denoted as A)
C#CCN1CC(=O)N(C)[C@H]2C/C=C\CCN(C2=O)[C@@H](Cc2ccc(C(F)(F)F)cc2)C(=O)N(C)CC(=O)N[C@@H](CCc2ccc(C(F)(F)F)c(OC)c2)C(=O)N2C[C@H](OCC)C[C@H]2C(=O)NC2(CC(C)(C)C2)C(=O)N(C)[C@@H](C2CCCC2)C(=O)N(C)[C@H](C(=O)N(C)C)CC(=O)N(C)[C@@H](CCC)C(=O)N[C@@H]([C@@H](C)CC)C1=O [PP2107]	A (a compound having 10 or more and less than 20 is denoted as A)	A (a compound having 10 or more and less than 20 is denoted as A)
CCC[C@H]1C(=O)N[C@@H]([C@@H](C)CC)C(=O)N(CCC)CC(=O)N(C)[C@H]2C/C=C\CCN(C2=O)[C@@H](Cc2ccc(C)cc2)C(=O)N(C)CC(=O)N[C@@H](CCc2cc(F)c(C(F)(F)F)c(F)c2)C(=O)N2C[C@H](OCC)C[C@H]2C(=O)NC2(CC(C)(C)C2)C(=O)N(C)[C@@H](C2CCCC2)C(=O)N(C)[C@H](C(=O)N(C)C)CC(=O)N1C [PP2108]	A (a compound having 10 or more and less than 20 is denoted as A)	A (a compound having 10 or more and less than 20 is denoted as A)
CCO[C@@H]1C[C@H]2C(=O)NC3(CC(C)(C)C3)C(=O)N(C)[C@@H](C3CCCC3)C(=O)N(C)[C@H](C(=O)N(C)C)CC(=O)N(C)[C@@H](CC(C)C)C(=O)N[C@@H]([C@@H](C)CC)C(=O)N(C3CC3)CC(=O)N(C)[C@H]3C/C=C\CCN(C3=O)[C@@H](Cc3ccc(C)cc3)C(=O)N(C)CC(=O)N[C@@H](CCc3cc(F)c(C(F)(F)F)c(F)c3)C(=O)N2C1 [PP2109]	A (a compound having 10 or more and less than 20 is denoted as A)	A (a compound having 10 or more and less than 20 is denoted as A)
CCO[C@@H]1C[C@H]2C(=O)NC3(CCC3)C(=O)N(C)[C@@H](C3CCCC3)C(=O)N(C)[C@H](C(=O)N(C)CC)CC(=O)N(C)[C@H]3CCCCCc4ccc(cc4)C[C@@H](C(=O)N(C)CC(=O)N[C@@H](CCc4ccc(C(F)(F)F)c(OC)c4)C(=O)N2C1)N1CC/C=C\C[C@@H](C1=O)N(C)C(=O)CN(C)C(=O)[C@H]([C@@H](C)CC)NC3=O [PP2118]	A (a compound having 10 or more and less than 20 is denoted as A)	B (a compound having 3 or more and less than 10 is denoted as B)
CCO[C@@H]1C[C@H]2C(=O)NC3(CC(C)(C)C3)C(=O)N(C)[C@@H](C(CC)CC)C(=O)N(C)[C@H](C(=O)N(C)C)CC(=O)N(C)[C@@H](CC3CC3)C(=O)N[C@@H]([C@@H](C)CC)C(=O)N(C)CC(=O)N(C)[C@H]3C/C=C\CCN(C3=O)[C@@H](Cc3ccc(C(F)(F)F)cc3)C(=O)N(C)CC(=O)N[C@@H](CCc3cc(F)c(C(F)(F)F)c(F)c3)C(=O)N2C1 [PP2119]	A (a compound having 10 or more and less than 20 is denoted as A)	B (a compound having 3 or more and less than 10 is denoted as B)
CCO[C@@H]1C[C@H]2C(=O)NC3(CC(C)(C)C3)C(=O)N(C)[C@@H](C(CC)CC)C(=O)N(C)[C@H](C(=O)N(C)C)CC(=O)N(C)[C@@H](CC3CCC3)C(=O)N[C@@H]([C@@H](C)CC)C(=O)N(C)CC(=O)N(C)[C@H]3C/C=C\CCN(C3=O)[C@@H](Cc3ccc(C)cc3)C(=O)N(C)CC(=O)N[C@@H](CCc3ccc(Cl)c(Cl)c3)C(=O)N2C1 [PP2120]	AA (a compound having 20 or more is denoted as AA)	A (a compound having 10 or more and less than 20 is denoted as A)
CCO[C@@H]1C[C@H]2C(=O)NC3(CC(C)(C)C3)C(=O)N(C)[C@@H](C(CC)CC)C(=O)N(C)[C@H](C(=O)N(C)C)CC(=O)N(C)[C@@H](COC)C(=O)N[C@@H]([C@@H](C)CC)C(=O)N(C)CC(=O)N(C)[C@H]3C/C=C\CCN(C3=O)[C@@H](Cc3ccc(C(F)(F)F)cc3)C(=O)N(C)CC(=O)N[C@@H](CCc3cc(F)c(C(F)(F)F)c(F)c3)C(=O)N2C1 [PP2121]	AA (a compound having 20 or more is denoted as AA)	A (a compound having 10 or more and less than 20 is denoted as A)
